Experimental data from US5112866A, “Ethanesulfonamide derivatives” (Ortho Pharmaceutical Corporation, priority 1989, dated 1992).
Counter-ions that a name gives are not always drawn. Like-named read-outs stand apart in the source and are kept apart here.

Key:
[1] = system: Rabbit Isolated Parietal Cells; assay: Inhibition of 14C-aminopyrine accumulation in stimulated rabbit isolated parietal cells; type: cell-based; conditions: Oryctolagus cuniculus, 37° C.
Source text: Pharmacology of the Ethanesulfonamide Compounds - Rabbit Isolated Parietal Cells
Parietal cells were isolated from the fundic mucosa of rabbit stomachs by a four-stage collagenase digestion Process. The supernatant fraction from the last two stages of this Process contained the individual parietal cells. This cell suspension was centrifuged and reconstituted in a modified Hank's buffer to contain 2-3×10^6 cells/ml. […] The accumulation is stimulated by histamine and is blocked by H2 antagonists. Accumulation of ^14 C-AP is also stimulated by dibutyryl cAMP (dbcAMP). The cells were incubated with 0.5×10^6 cpm ^14 C-AP, with various concentrations of histamine or dbcAMP, […] isobutylmethylxanthine, and test compound added in a 20 μl volume of buffer or dimethylsulfoxide. The flasks were incubated in a shaking water bath at 37° C. Two 0.5 ml aliquots were then taken from each flask and cell pellets were collected by centrifugation. The pellets were solubilized with Protosol (NEN) and radioactivity determined by liquid scintillation spectrometry.
The concentration of compound required to inhibit ^14 C-AP accumulation in the stimulated parietal cell by 50% (IC50) was determined.

[2] = system: Mouse osteoblastic-line cells (MC3T3-El); assay: Mouse Osteoblast-line Cell Proliferation (3H-thymidine); type: cell-based; conditions: 0.1% FBS
Experimental: Pharmacology of the Ethenesulfonyl Fluoride Compounds--In Vitro Mouse Osteoblast-line Cell Proliferation
Reagents: Mouse osteoblastic-line cells (MC3T3-El) were plated in Dulbeccos Modified Eagles Medium (DMEM) with 25 mM Hepes Buffer, L-Glutamine, D-Glucose(4.5 gm/1) supplemented with 10% fetal bovine sera, Penicillin (100 units/ml) and Streptomycin ([…]) (Penicillin-Streptomycin liquid) and sodium pyruvate (10 μM final concentration). ^3 H-Thymidine (6.7 Ci/mmole) was diluted in DMEM media without FBS and filter sterilized. An aliquot of this solution was delivered to each culture well to a final concentration of ^3 H-thymidine of 0.4 μCi per well (2 μCi/ml).
Test Preparations: Solutions of the test compound were made on the day before incubation. These compounds were solubilized in either ethanol or DMSO at a concentration of 100 mM containing 0.1% FBS. The solutions were filter sterilized and then sterile serial dilutions were performed with DMEM media containing 0.1% FBS.
Osteoblast line cells were plated into 96 well culture plates, 1600 cells in 100 μL per well in DMEM with 25 mM Hepes Buffer, L-Glutamine, D-Glucose (4.5 gm/L) supplemented with 10% fetal bovine sera, Penicillin (100 units/mL) and Streptomycin (100 μg/mL) and sodium Pyruvate (10 μM final concentration). The media was replaced with DMEM containing no FBS and the cells were then incubated for an additional 24 hours. The following day, test compounds were added and screened at concentrations ranging from 10^-10 to 10^-5 M in the Presence of 0.1% FBS. The cells were then incubated an additional 20 hours. At this time 0.4 μ/Ci of 3H-thymidine was added to each culture well and the cells were incubated an additional 4 hours. The cells were then harvested with a Skatron Cell Harvester onto a glass fiber filter and washed with water, %5 trichloroacetic acid (TCA) and then 95% ethanol. The filters were then processed and counted on the LKB beta plate scintillation counter.

[3] = 14C-AP accumulation stimulated by dibutyryl cAMP, read-out: IC50 (dbcAMP)
[4] = 14C-AP accumulation stimulated by histamine, read-out: IC50 (H)

## O=S(=O)(CCNc1ccc(Br)cc1)NCCCOc1cccc(CN2CCCCC2)c1 [Example 5]
[1]; [3]
  IC50: 860 nM
[1]; [4]
  IC50: 370 nM

## O=S(=O)(CCNc1ccccc1)NCCCOc1cccc(CN2CCCCC2)c1 [Example 6, 2-(Phenylamino)-N-[3-[3-(piperidinomethyl)phenoxy]propyl]ethanesulfonamide]
[1]; [3]
  IC50: 10000 nM
[1]; [4]
  IC50: 1000 nM

## CC(C)Oc1ccc(NCCS(=O)(=O)NCCCOc2cccc(CN3CCCCC3)c2)cc1 [Example 7, 2-[[4-(1-Methylethony)Phenyl]amino]-N-[3-[3-(piperidinomethyl)Phenoxy]propyl]ethanesulfonamide]
[1]; [3]
  IC50: 2000 nM
[1]; [4]
  IC50: 840 nM

## CCCCCOc1ccc(NCCS(=O)(=O)NCCCOc2cccc(CN3CCCCC3)c2)cc1 [Example 8, 2-[(4-Pentoxyphenyl)amino]-N-[3-[3-(piperidinomethyl)phenoxy]propyl]ethanesulfonamide]
[1]; [3]
  IC50: 370 nM
[1]; [4]
  IC50: 330 nM

## CCOC(=O)c1ccc(NCCS(=O)(=O)F)cc1 [Example 16]
[2]; 0.001 μM
  Mouse Osteoblast-line Cell Proliferation [Expressed as a Percent of Control]: 132.8% of Control
[2]; 0.01 μM
  Mouse Osteoblast-line Cell Proliferation [Expressed as a Percent of Control]: 142.1% of Control
[2]; 0.1 μM
  Mouse Osteoblast-line Cell Proliferation [Expressed as a Percent of Control]: 127.5% of Control
[2]; 1.0 μM
  Mouse Osteoblast-line Cell Proliferation [Expressed as a Percent of Control]: 136.5% of Control
[2]; 10 μM
  Mouse Osteoblast-line Cell Proliferation [Expressed as a Percent of Control]: 154.7% of Control

## COc1ccc(NCCS(=O)(=O)F)cc1 [Example 17, Monohydrochloride]
[2]; 0.001 μM
  Mouse Osteoblast-line Cell Proliferation [Expressed as a Percent of Control]: 165.5% of Control
[2]; 0.01 μM
  Mouse Osteoblast-line Cell Proliferation [Expressed as a Percent of Control]: 148.9% of Control
[2]; 0.1 μM
  Mouse Osteoblast-line Cell Proliferation [Expressed as a Percent of Control]: 129.1% of Control
[2]; 1.0 μM
  Mouse Osteoblast-line Cell Proliferation [Expressed as a Percent of Control]: 115.9% of Control
[2]; 10 μM
  Mouse Osteoblast-line Cell Proliferation [Expressed as a Percent of Control]: 108.8% of Control

## O=S(=O)(F)CCNc1ccccc1 [Example 18, Monohydrochloride]
[2]; 0.001 μM
  Mouse Osteoblast-line Cell Proliferation [Expressed as a Percent of Control]: 132.6% of Control
[2]; 0.01 μM
  Mouse Osteoblast-line Cell Proliferation [Expressed as a Percent of Control]: 125.6% of Control
[2]; 0.1 μM
  Mouse Osteoblast-line Cell Proliferation [Expressed as a Percent of Control]: 108.1% of Control
[2]; 1.0 μM
  Mouse Osteoblast-line Cell Proliferation [Expressed as a Percent of Control]: 93.1% of Control
[2]; 10 μM
  Mouse Osteoblast-line Cell Proliferation [Expressed as a Percent of Control]: 95.9% of Control

## CCCCc1ccc(NCCS(=O)(=O)F)cc1 [Example 19, Monohydrochloride]
[2]; 0.001 μM
  Mouse Osteoblast-line Cell Proliferation [Expressed as a Percent of Control]: 109.0% of Control
[2]; 0.01 μM
  Mouse Osteoblast-line Cell Proliferation [Expressed as a Percent of Control]: 143.3% of Control
[2]; 0.1 μM
  Mouse Osteoblast-line Cell Proliferation [Expressed as a Percent of Control]: 159.8% of Control
[2]; 1.0 μM
  Mouse Osteoblast-line Cell Proliferation [Expressed as a Percent of Control]: 97.4% of Control
[2]; 10 μM
  Mouse Osteoblast-line Cell Proliferation [Expressed as a Percent of Control]: 115.7% of Control

## O=S(=O)(F)CCNc1ccc(F)cc1 [Example 20, Monohydrochloride]
[2]; 0.001 μM
  Mouse Osteoblast-line Cell Proliferation [Expressed as a Percent of Control]: 133.4% of Control
[2]; 0.01 μM
  Mouse Osteoblast-line Cell Proliferation [Expressed as a Percent of Control]: 111.8% of Control
[2]; 0.1 μM
  Mouse Osteoblast-line Cell Proliferation [Expressed as a Percent of Control]: 110.2% of Control
[2]; 1.0 μM
  Mouse Osteoblast-line Cell Proliferation [Expressed as a Percent of Control]: 116.9% of Control
[2]; 10 μM
  Mouse Osteoblast-line Cell Proliferation [Expressed as a Percent of Control]: 112.3% of Control

## Cc1ccc(NCCS(=O)(=O)F)cc1 [Example 21]
[2]; 0.001 μM
  Mouse Osteoblast-line Cell Proliferation [Expressed as a Percent of Control]: 131.5% of Control
[2]; 0.01 μM
  Mouse Osteoblast-line Cell Proliferation [Expressed as a Percent of Control]: 132.0% of Control
[2]; 0.1 μM
  Mouse Osteoblast-line Cell Proliferation [Expressed as a Percent of Control]: 126.6% of Control
[2]; 1.0 μM
  Mouse Osteoblast-line Cell Proliferation [Expressed as a Percent of Control]: 119.9% of Control
[2]; 10 μM
  Mouse Osteoblast-line Cell Proliferation [Expressed as a Percent of Control]: 111.8% of Control

## COc1ccc(NCCS(=O)(=O)F)cc1OC [Example 22, Monohydrochloride]
[2]; 0.001 μM
  Mouse Osteoblast-line Cell Proliferation [Expressed as a Percent of Control]: 143.6% of Control
[2]; 0.01 μM
  Mouse Osteoblast-line Cell Proliferation [Expressed as a Percent of Control]: 133.6% of Control
[2]; 0.1 μM
  Mouse Osteoblast-line Cell Proliferation [Expressed as a Percent of Control]: 116.4% of Control
[2]; 1.0 μM
  Mouse Osteoblast-line Cell Proliferation [Expressed as a Percent of Control]: 113.5% of Control
[2]; 10 μM
  Mouse Osteoblast-line Cell Proliferation [Expressed as a Percent of Control]: 106.7% of Control

## O=S(=O)(F)CCNc1ccc(C(F)(F)F)cc1 [Example 23]
[2]; 0.001 μM
  Mouse Osteoblast-line Cell Proliferation [Expressed as a Percent of Control]: 108.1% of Control
[2]; 0.01 μM
  Mouse Osteoblast-line Cell Proliferation [Expressed as a Percent of Control]: 97.9% of Control
[2]; 0.1 μM
  Mouse Osteoblast-line Cell Proliferation [Expressed as a Percent of Control]: 107.3% of Control
[2]; 1.0 μM
  Mouse Osteoblast-line Cell Proliferation [Expressed as a Percent of Control]: 120.8% of Control
[2]; 10 μM
  Mouse Osteoblast-line Cell Proliferation [Expressed as a Percent of Control]: 111.7% of Control

## COc1ccc(CCN(C)CCS(=O)(=O)F)cc1OC [Example 24, N-[2-(Fluorosulfonyl)ethyl]-3,4-dimethoxy-N-methylphenethylamine]
[2]; 0.001 μM
  Mouse Osteoblast-line Cell Proliferation [Expressed as a Percent of Control]: 150.4% of Control
[2]; 0.01 μM
  Mouse Osteoblast-line Cell Proliferation [Expressed as a Percent of Control]: 143.9% of Control
[2]; 0.1 μM
  Mouse Osteoblast-line Cell Proliferation [Expressed as a Percent of Control]: 153.5% of Control
[2]; 1.0 μM
  Mouse Osteoblast-line Cell Proliferation [Expressed as a Percent of Control]: 123.3% of Control
[2]; 10 μM
  Mouse Osteoblast-line Cell Proliferation [Expressed as a Percent of Control]: 106.7% of Control

## CCc1ccc(NCCS(=O)(=O)F)cc1 [Example 25, Monohydrochloride]
[2]; 0.001 μM
  Mouse Osteoblast-line Cell Proliferation [Expressed as a Percent of Control]: 139.4% of Control
[2]; 0.01 μM
  Mouse Osteoblast-line Cell Proliferation [Expressed as a Percent of Control]: 123.3% of Control
[2]; 0.1 μM
  Mouse Osteoblast-line Cell Proliferation [Expressed as a Percent of Control]: 100.9% of Control
[2]; 1.0 μM
  Mouse Osteoblast-line Cell Proliferation [Expressed as a Percent of Control]: 110.6% of Control
[2]; 10 μM
  Mouse Osteoblast-line Cell Proliferation [Expressed as a Percent of Control]: 90.0% of Control

## CC(C)(C)c1ccc(NCCS(=O)(=O)F)cc1 [Example 26, Hydrate]
[2]; 0.001 μM
  Mouse Osteoblast-line Cell Proliferation [Expressed as a Percent of Control]: 152.8% of Control
[2]; 0.01 μM
  Mouse Osteoblast-line Cell Proliferation [Expressed as a Percent of Control]: 165.7% of Control
[2]; 0.1 μM
  Mouse Osteoblast-line Cell Proliferation [Expressed as a Percent of Control]: 89.9% of Control
[2]; 1.0 μM
  Mouse Osteoblast-line Cell Proliferation [Expressed as a Percent of Control]: 102.7% of Control
[2]; 10 μM
  Mouse Osteoblast-line Cell Proliferation [Expressed as a Percent of Control]: 93.2% of Control

## CC(C)c1ccc(NCCS(=O)(=O)F)cc1 [Example 27, Hydrate]
[2]; 0.001 μM
  Mouse Osteoblast-line Cell Proliferation [Expressed as a Percent of Control]: 137.2% of Control
[2]; 0.01 μM
  Mouse Osteoblast-line Cell Proliferation [Expressed as a Percent of Control]: 130.0% of Control
[2]; 0.1 μM
  Mouse Osteoblast-line Cell Proliferation [Expressed as a Percent of Control]: 106.9% of Control
[2]; 1.0 μM
  Mouse Osteoblast-line Cell Proliferation [Expressed as a Percent of Control]: 110.8% of Control
[2]; 10 μM
  Mouse Osteoblast-line Cell Proliferation [Expressed as a Percent of Control]: 97.7% of Control
